This test concerns human umbilical vein endothelial cells (HUVECs). Description: KLF2 and eNOS gene expression in endothelial cells treated with GSK126 (RT-PCR and q-PCR). The class given is cell-based. The text has this:
Experiments were designed to determine the effects of the EZH2 inhibitor GSK126 on expression of genes KLF2 and eNOS in endothelial cells. Histone methylation is an important epigenetic modification. Histone 3 lysine 27 (H3K27) is correlated with transcriptional repression. EZH2, a histone methytransferase, is critical for the epigenetic maintenance of the H3K27me3 repressive chromatin mark. To determine whether the alternation of histone methylation affects gene expression in endothelial cells, experiments were designed to assess the effects of an EZH2 inhibitor GSK126. […]

The mark [1] stands for this setting: 0.02 μM GSK126 for different times, RT-PCR and q-PCR (FIG. 1).

The record followed here is patent US20160340674A1, “Compositions and Methods to Inhibit EZH2 for the Treatment of Cardiovascular Diseases” (UNIVERSITY OF ROCHESTER, priority 2014, published 2016).

Structures are written as SMILES.

As for `CC[C@H](C)n1cc(C)c2c(C(=O)NCc3c(C)cc(C)[nH]c3=O)cc(-c3ccc(N4CCNCC4)nc3)cc21` [GSK126, (S)-1-(sec-butyl)-N-((4,6-dimethyl-2-oxo-1,2-dihydropyridin-3-yl)methyl)-3-methyl-6-(6-(piperazin-1-yl)pyridin-3-yl)-1H-indole-4-carboxamide], under setting [1], the “level of KLF2 mRNA” value is “increased” and the “level of eNOS mRNA” value is on record as “increased”. For the same compound, the KLF2 expression result (24 hours at different concentrations (FIG. 2A)) is on record as “dose-dependently increased”. Further, the eNOS expression result (24 hours at different concentrations (FIG. 2B)) is “dose-dependently increased”.
